Target: recombinant human MGAT2 (Homo sapiens (Human), UniProt Q3SYC2)
Assay: Measurement of human MGAT2 inhibitory activity
Type: biochemical
Conditions: recombinant human MGAT2 membrane fraction (Sf-9); 2-Oleoylglycerol and Oleoyl-CoA substrates; 1 hour at room temperature; Diolein detected by RapidFire Q-TOF MS
Source text: A full-length human MGAT2 gene to which a Flag-tag had been added at the N-terminal was inserted into pFastBac (from Invitrogen). A recombinant baculovirus was produced in accordance with the protocol for a Bac-to-Bac baculovirus expression system (produced by Invitrogen), and Sf-9 cells were infected therewith. The cells were collected and sonicated, and then the membrane fraction was collected through centrifugation.
Solutions of the compounds of the present invention in DMSO were each aliquoted into 0.2-μL portions in a 384-well polystyrene microplate produced by Corning Incorporated, and 5 μL of an enzyme solution prepared with an assay buffer (100 mmol/L phosphate buffer (pH 7.4) containing 2 mmol/L DTT) and 5 μL of a substrate solution (100 mmol/L phosphate buffer (pH 7.4), 30 μmol/L 2-Oleoylglycerol, 10 μmol/L Oleoyl-CoA) were added thereto, and the resultant was stirred and centrifuged, and incubated in a moist chamber at room temperature for 1 hour. […] Diolein as a reaction product (P) of 2-Oleoylglycerol as the substrate and an ammonium adduct ion of the IS were detected, and the peak intensity ratio, P/IS, was calculated from the peak heights to evaluate the inhibitory activity. […] The inhibitory activity was calculated from the formula below with TIBCO Spotfire (produced by TIBCO Software Inc.): Inhibitory activity (%)=[1−{Sample−Control(−)}/{Control(+)−Control(−))}]*100 where Sample indicates a peak intensity ratio: P/IS, when the compound of the present invention was added.

Sequence of recombinant human MGAT2 (Q3SYC2 whole entry): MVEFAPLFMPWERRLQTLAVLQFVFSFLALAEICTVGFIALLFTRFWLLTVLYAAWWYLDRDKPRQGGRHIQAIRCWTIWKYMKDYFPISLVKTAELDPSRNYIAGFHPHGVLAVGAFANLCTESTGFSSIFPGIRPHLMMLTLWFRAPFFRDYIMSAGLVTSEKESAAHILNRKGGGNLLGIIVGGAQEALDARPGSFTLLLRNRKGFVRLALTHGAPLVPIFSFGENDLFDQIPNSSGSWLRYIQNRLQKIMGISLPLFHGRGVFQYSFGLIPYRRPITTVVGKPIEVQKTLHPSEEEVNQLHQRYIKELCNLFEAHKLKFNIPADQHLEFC

Structure (SMILES) | IC50
CC(C)(O)c1ccc(C2=C(CNC(=O)C3CS(=O)(=O)C3)C(=O)N[C@@](c3ccc(OCCCC(F)(F)F)cc3)(C(F)(F)F)C2)nc1 [Compound I-48] | 3.2 nM
CC(=O)NCC1=C(c2ccc(Br)cn2)C[C@](c2ccc(OCCCC(F)(F)F)cc2)(C(F)(F)F)NC1=O [Compound I-49] | 140 nM
CC(=O)NCC1=C(c2ccc(C(C)=O)cn2)C[C@](c2ccc(OCCCC(F)(F)F)cc2)(C(F)(F)F)NC1=O [Compound I-51] | 130 nM
CC(C)(C#N)C(=O)NCC1=C(c2ccc(C(C)(C)O)cn2)C[C@](c2ccc(OCCCC(F)(F)F)cc2)(C(F)(F)F)NC1=O [Compound I-52] | 3.1 nM
CC(C)c1ccc(C2=C(CNC(=O)C3COC3)C(=O)N[C@@](c3ccc(OCCCC(F)(F)F)cc3)(C(F)(F)F)C2)nc1 [Compound I-53] | 11 nM
CC(C)c1ccc(C2=C(CNC(=O)CC(=O)OC(C)(C)C)C(=O)N[C@@](c3ccc(OCCCC(F)(F)F)cc3)(C(F)(F)F)C2)nc1 [Compound I-54] | 82 nM
CC(C)c1ccc(C2=C(CNC(=O)CC(=O)O)C(=O)N[C@@](c3ccc(OCCCC(F)(F)F)cc3)(C(F)(F)F)C2)nc1 [Compound I-55] | 160 nM
CC(=O)NCC1=C(c2ccc(OC(F)F)cn2)C[C@](c2ccc(OCCCC(F)(F)F)cc2)(C(F)(F)F)NC1=O [Compound I-56] | 17 nM
CS(=O)(=O)CC(=O)NCC1=C(c2ccc(OC(F)F)cn2)C[C@](c2ccc(OCCCC(F)(F)F)cc2)(C(F)(F)F)NC1=O [Compound I-57] | 0.62 nM
CC(=O)NCC1=C(c2ccc(C(F)F)cn2)C[C@](c2ccc(OCCCC(F)(F)F)cc2)(C(F)(F)F)NC1=O [Compound I-58] | 34 nM
CS(=O)(=O)CC(=O)NCC1=C(c2ccc(C(F)F)cn2)C[C@](c2ccc(OCCCC(F)(F)F)cc2)(C(F)(F)F)NC1=O [Compound I-59] | 1.1 nM
CC(C)c1ccc(C2=C(CNC(=O)CO)C(=O)N[C@@](c3ccc(OCCCC(F)(F)F)cc3)(C(F)(F)F)C2)nc1 [Compound I-60] | 27 nM
CC(C)c1ccc(C2=C(CNC(=O)CN(C)C)C(=O)N[C@@](c3ccc(OCCCC(F)(F)F)cc3)(C(F)(F)F)C2)nc1 [Compound I-61] | 27 nM
O=C(CO)NCC1=C(c2ccc(OC(F)F)cn2)C[C@](c2ccc(OCCCC(F)(F)F)cc2)(C(F)(F)F)NC1=O [Compound I-62] | 59 nM
O=C(CO)NCC1=C(c2ccc(C(F)F)cn2)C[C@](c2ccc(OCCCC(F)(F)F)cc2)(C(F)(F)F)NC1=O [Compound I-63] | 110 nM
CC(C)(C)OC(=O)N1CC(C(=O)NCC2=C(c3ccc(C(F)F)cn3)C[C@](c3ccc(OCCCC(F)(F)F)cc3)(C(F)(F)F)NC2=O)C1 [Compound I-64] | 14 nM
O=C1N[C@@](c2ccc(OCCCC(F)(F)F)cc2)(C(F)(F)F)CC(c2ccc(C(F)F)cn2)=C1CNC(=O)C1CNC1 [Compound I-65] | 280 nM
CC1(C(=O)NCC2=C(c3ccc(C(F)F)cn3)C[C@](c3ccc(OCCCC(F)(F)F)cc3)(C(F)(F)F)NC2=O)CNC1 [Compound I-66] | 410 nM
O=C1N[C@@](c2ccc(OCCCC(F)(F)F)cc2)(C(F)(F)F)CC(c2ccc(C(F)F)cn2)=C1CNC(=O)C1(F)CNC1 [Compound I-67] | 40 nM
CC(=O)NCC1=C(c2ncc(C3CC3)s2)C[C@](c2ccc(OCCCC(F)(F)F)cc2)(C(F)(F)F)NC1=O [Compound I-68] | 440 nM
CS(=O)(=O)CC(=O)NCC1=C(c2ncc(C3CC3)s2)C[C@](c2ccc(OCCCC(F)(F)F)cc2)(C(F)(F)F)NC1=O [Compound I-69] | 43 nM
CS(=O)(=O)CC(=O)NCC1=C(c2ccc(Br)cn2)C[C@](c2ccc(OCCCC(F)(F)F)cc2)(C(F)(F)F)NC1=O [Compound I-70] | 5.3 nM
CS(=O)(=O)CC(=O)NCC1=C(c2ccc(Br)cn2)C[C@@](c2ccc(OCCCC(F)(F)F)cc2)(C(F)(F)F)NC1=O [Compound I-71] | 940 nM
C=C(C)c1ccc(C2=C(CNC(=O)CS(C)(=O)=O)C(=O)N[C@@](c3ccc(OCCCC(F)(F)F)cc3)(C(F)(F)F)C2)nc1 [Compound I-72] | 1 nM
C=C(C)c1ccc(C2=C(CNC(=O)CS(C)(=O)=O)C(=O)N[C@](c3ccc(OCCCC(F)(F)F)cc3)(C(F)(F)F)C2)nc1 [Compound I-73] | 77 nM

Structure (SMILES) | IC50
CS(=O)(=O)CC(=O)NCC1=C(c2ccc(C(F)F)cn2)C[C@](c2ccc(C(F)(F)F)cc2)(C(F)(F)F)NC1=O [Compound I-75] | 78 nM
CS(=O)(=O)CC(=O)NCC1=C(c2ccc(OC(F)F)cn2)C[C@](c2ccc(Br)cc2)(C(F)(F)F)NC1=O [Compound I-78] | 25 nM
CC(C)(C(=O)NCC1=C(c2ccc(C(F)F)cn2)C[C@](c2ccc(OCCCC(F)(F)F)cc2)(C(F)(F)F)NC1=O)S(C)(=O)=O [Compound I-80] | 990 nM
CS(=O)(=O)C1(C(=O)NCC2=C(c3ccc(C(F)F)cn3)C[C@](c3ccc(OCCCC(F)(F)F)cc3)(C(F)(F)F)NC2=O)CC1 [Compound I-81] | 140 nM
CC(C(=O)NCC1=C(c2ccc(C(F)F)cn2)C[C@](c2ccc(OCCCC(F)(F)F)cc2)(C(F)(F)F)NC1=O)S(C)(=O)=O (some centres unmarked) [Compound I-83] | 22 nM
CC(C(=O)NCC1=C(c2ccc(C(F)F)cn2)C[C@](c2ccc(OCCCC(F)(F)F)cc2)(C(F)(F)F)NC1=O)S(C)(=O)=O (some centres unmarked) [Compound I-85] | 24 nM
CS(=O)(=O)CC(=O)NCC1=C(c2ccc(C(F)F)cn2)C[C@](c2ccc(CCC(F)(F)F)cc2)(C(F)(F)F)NC1=O [Compound I-86] | 1.9 nM
CS(=O)(=O)CC(=O)NCC1=C(c2ccc(C(F)F)cn2)C[C@](c2ccc(C3CC3)cc2)(C(F)(F)F)NC1=O [Compound I-88] | 21 nM
CS(=O)(=O)CC(=O)NCC1=C(c2ccc(C(F)F)cn2)C[C@](c2ccc(OC(F)(F)F)cc2)(C(F)(F)F)NC1=O [Compound I-90] | 27 nM
CS(=O)(=O)CC(=O)NCC1=C(c2ccc(C(F)F)cn2)C[C@](c2ccc(OCC(F)(F)F)cc2)(C(F)(F)F)NC1=O [Compound I-91] | 6.8 nM
CS(=O)(=O)CC(=O)NCC1=C(c2ccc(C(F)F)cn2)C[C@](c2ccc(Br)cc2)(C(F)(F)F)NC1=O [Compound I-94] | 59 nM
CS(=O)(=O)CC(=O)NCC1=C(c2ccc(OC(F)F)cn2)C[C@](c2ccc(C3CC3)cc2)(C(F)(F)F)NC1=O [Compound I-95] | 17 nM
CS(=O)(=O)CC(=O)NCC1=C(c2ccc(C(F)F)cn2)C[C@](c2ccc(CN3CCOCC3)cc2)(C(F)(F)F)NC1=O [Compound I-97] | 39 nM
Cn1cc(-c2ccc([C@]3(C(F)(F)F)CC(c4ccc(OC(F)F)cn4)=C(CNC(=O)CS(C)(=O)=O)C(=O)N3)cc2)cn1 [Compound I-98] | 70 nM
CS(=O)(=O)CC(=O)NCC1=C(c2ccc(OC(F)F)cn2)C[C@](c2ccc(-c3ccccc3)cc2)(C(F)(F)F)NC1=O [Compound I-99] | 26 nM
Cn1ccc(-c2ccc([C@]3(C(F)(F)F)CC(c4ccc(OC(F)F)cn4)=C(CNC(=O)CS(C)(=O)=O)C(=O)N3)cc2)cc1=O [Compound I-100] | 370 nM
CS(=O)(=O)CC(=O)NCC1=C(c2ccc(OC(F)F)cn2)C[C@](c2ccc(C3=CCOCC3)cc2)(C(F)(F)F)NC1=O [Compound I-101] | 42 nM
COC/C=C/c1ccc([C@]2(C(F)(F)F)CC(c3ccc(OC(F)F)cn3)=C(CNC(=O)CS(C)(=O)=O)C(=O)N2)cc1 [Compound I-102] | 21 nM
CS(=O)(=O)CC(=O)NCC1=C(c2ccc(OC(F)F)cn2)C[C@](c2ccc(OCCCC(F)(F)F)cn2)(C(F)(F)F)NC1=O [Compound I-103] | 6.6 nM
CS(=O)(=O)CC(=O)NCC1=C(c2ccc(OC(F)F)cn2)C[C@](c2ccc(OCC(F)F)cc2)(C(F)(F)F)NC1=O [Compound I-105] | 9.2 nM
CS(=O)(=O)CC(=O)NCC1=C(c2ccc(OC(F)F)cn2)C[C@](c2ccc(C(F)(F)F)cc2)(C(F)(F)F)NC1=O [Compound I-108] | 46 nM
CS(=O)(=O)CC(=O)NCC1=C(c2ccc(C(F)F)cn2)CC(c2ccc(Br)cc2F)(C(F)(F)F)NC1=O (centres unmarked) [Compound I-111] | 33 nM
O=C(CC(F)(F)F)NCC1=C(c2ccc(C(F)F)cn2)C[C@](c2ccc(OCCCC(F)(F)F)cc2)(C(F)(F)F)NC1=O [Compound I-112] | 3.8 nM
CS(=O)(=O)CC(=O)NCC1=C(c2ccc(OC(F)F)cn2)C[C@](c2ccc(OCC(F)(F)F)cc2)(C(F)(F)F)NC1=O [Compound I-114] | 4.1 nM
CS(=O)(=O)CC(=O)NCC1=C(c2ccc(C(F)F)cn2)C[C@](c2ccccc2)(C(F)(F)F)NC1=O [Compound I-115] | 110 nM
